Reference: ChEMBL document CHEMBL1201862, “PubChem BioAssay data set” (2004)
The source made the active and inactive calls.

Experiments:
[1] = luciferase reporter signal suppression in cells – H4 neuroglioma cells, luminescence, dose response (AID 1990); type: functional, cell-based
[2] = luciferase reporter signal reduction – luminescence, H4-C neuroglioblastoma cells, dose response (AID 2458); type: functional, cell-based;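 note: H4 neuroglioblastoma cells stably carrying a luciferase reporter gene fusion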
cells = type: functional, cell-based
[3] = Luminescence Cell-Based Dose Response HTS to Identify Inhibitors of 5'UTR Stem-Loop Driven Prion Protein mRNA Translation in H4 Neuroglioblastoma Cells. [Related pubchem assays: 1827 (Project Summary), 1813 (Primary HTS)]; type: functional
[4] = alpha-synuclein stem-loop luciferase translation blockers – H4 neuroglioma cells, luminescence, confirmation (AID 1988); type: functional, cell-based
BJ [5] = experiment: cells; type: functional, cell-based; details: Homo sapiens
[6] = DRD fibroblast viability loss – cell-based, non-viral oncogenic, luminescence, dose response (AID 1934); type: functional; details: Homo sapiens
[7] = alpha-synuclein stem-loop translation blockers – luminescence, H4 neuroglioblastoma cells, dose confirmation, confirmation (AID 2454); type: functional, cell-based;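 note: H4 neuroglioblastoma cells carrying an alpha-synuclein 5'UTR luciferase reporter; potency for inhibition of the luciferase signal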
BJ [8] = experiment: growth inhibition of engineered Ras-driven BJ cells – cell-based, alamar blue fluorescence, cherrypicked samples, dose response (AID 2631); type: functional; details: Homo sapiens;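 note: confirmatory dose-response assay in RAS-dependent BJ fibroblasts engineered with TERT, LT and ST, with cytotoxicity read by fluorescence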
Paired box protein Pax-8 = Paired box protein Pax-8 (Homo sapiens, UniProt Q06710); experiment: PAX8 transcriptional activity inhibition in RMG-I – RMG-I cells, luciferase, cherry-pick, dose response (AID 687027); type: functional, cell-based;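 note: luciferase reporter driven by Pax8 target thyroperoxidase promoter measured by SteadyGlo luminescence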
[9] = general cell-killing toxicity readout – plate reader, dry powder samples, cytotoxicity control for PAX8 inhibitor project, dose response (AID 743021); type: functional, cell-based
Beta-galactosidase = Beta-galactosidase (Escherichia coli, UniProt Q8VNN2); experiment: PubChem AID 485352; type: functional
[10] = target: Type-1 angiotensin II receptor (Homo sapiens, UniProt P30556); experiment: antagonism of angiotensin II type 1 receptor – cell-based, uHTS hits, selectivity assay for APJ receptor antagonist project, dose response (AID 463214); type: functional;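 note: antagonist potency against angiotensin II stimulated AT1 response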
[11] = target: T1, Endoribonuclease toxin MazF (Escherichia coli K-12, UniProt P0AE70); experiment: MazEF toxin-antitoxin RNase activation – biochemical, fluorescence, single-stranded RNA substrate, SAR follow-up (AID 588603); type: functional
T1 sequence (P0AE70 whole entry): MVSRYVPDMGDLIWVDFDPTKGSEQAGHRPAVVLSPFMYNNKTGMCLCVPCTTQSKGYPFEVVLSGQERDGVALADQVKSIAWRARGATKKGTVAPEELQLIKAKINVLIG

[12] = target: T1, Endoribonuclease toxin MazF; experiment: activation of MazEF endoribonuclease cleavage – biochemical, fluorescence, single-stranded RNA substrate, uHTS hits, dose response (AID 588481); type: functional
MEF = experiment: SAR analysis of small molecule cytotoxicity of MazEF TA System activators in embryonic fibroblast (MEF) cells. [Related pubchem assays (depositor defined):AID504720, AID504743]; type: functional; details: Mus musculus
[13] = target: T1, Endoribonuclease toxin MazF; experiment: SAR analysis of small molecule activators of the MazEF TA System via a fluorescence-based single-stranded RNase assay counterscreen. [Related pubchem assays (depositor defined):AID504720, AID504743]; type: functional
[14] = target: T1, Endoribonuclease toxin MazF; experiment: substrate-only fluorescence increase artefacts – biochemical, single-stranded RNase substrate, counter-screen for MazEF activator project, dose response (AID 588502); type: functional
CHO-K1 = experiment: (§1) Counterscreen for antagonists of the orexin 1 receptor (OX1R; HCRTR1): Homogeneous time resolved fluorescence (HTRF)-based cell-based dose response assay to identify antagonists of the parental CHO-K1 cell line. [Related pubchem assays (depositor defined):AID434989, AID435008, AID463079, AID485270, AID492963, AID492964, AID492965, AID493232, AID504699, AID504701]; type: functional; details: Cricetulus griseus
[15] = as §1, with “Fluorescence-based” for “Homogeneous time resolved fluorescence (HTRF)-based”, “cell-based high throughput” for “cell-based”, “CHO” for “CHO-K1”; type: functional
[16] = target: T2, Orexin/Hypocretin receptor type 1 (Homo sapiens, UniProt O43613); experiment: Homogeneous Time Resolved Fluorescence (HTRF)-based cell-based high throughput dose response assay for antagonists of the orexin 1 receptor (OX1R; HCRTR1). [Related pubchem assays (depositor defined):AID434989, AID435008, AID463079, AID485270, AID492963, AID492964, AID492965, AID493232, AID504717, AID504718]; type: functional
T2 sequence (O43613 whole entry): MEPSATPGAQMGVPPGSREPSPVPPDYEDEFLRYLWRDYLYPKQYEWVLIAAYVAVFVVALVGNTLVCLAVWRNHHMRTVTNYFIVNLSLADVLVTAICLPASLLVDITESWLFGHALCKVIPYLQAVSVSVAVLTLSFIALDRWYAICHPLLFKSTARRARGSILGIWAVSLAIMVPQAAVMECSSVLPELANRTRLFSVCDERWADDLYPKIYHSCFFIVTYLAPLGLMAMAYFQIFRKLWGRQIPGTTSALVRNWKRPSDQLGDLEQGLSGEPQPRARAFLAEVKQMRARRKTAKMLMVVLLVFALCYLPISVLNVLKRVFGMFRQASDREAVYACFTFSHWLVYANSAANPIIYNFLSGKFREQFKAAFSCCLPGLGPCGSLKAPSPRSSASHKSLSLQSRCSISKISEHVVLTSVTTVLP

[17] = target: T2, Orexin/Hypocretin receptor type 1; experiment: Fluorescence-based cell-based high throughput dose response assay for antagonists of the orexin 1 receptor (OX1R; HCRTR1). [Related pubchem assays (depositor defined):AID434989, AID435008, AID463079, AID485270, AID492963, AID492964, AID492965, AID493232, AID504717, AID504718]; type: functional
Orexin receptor type 2 [18] = target: T3, Orexin receptor type 2 (Homo sapiens, UniProt O43614); experiment: Counterscreen assay for antagonists of the orexin 1 receptor (OX1R; HCRTR1): Fluorescence-based cell-based dose response assay for antagonists of the orexin 2 receptor (OX2R; HCRTR2), run by assay provider.; type: functional
T3 sequence (O43614 whole entry): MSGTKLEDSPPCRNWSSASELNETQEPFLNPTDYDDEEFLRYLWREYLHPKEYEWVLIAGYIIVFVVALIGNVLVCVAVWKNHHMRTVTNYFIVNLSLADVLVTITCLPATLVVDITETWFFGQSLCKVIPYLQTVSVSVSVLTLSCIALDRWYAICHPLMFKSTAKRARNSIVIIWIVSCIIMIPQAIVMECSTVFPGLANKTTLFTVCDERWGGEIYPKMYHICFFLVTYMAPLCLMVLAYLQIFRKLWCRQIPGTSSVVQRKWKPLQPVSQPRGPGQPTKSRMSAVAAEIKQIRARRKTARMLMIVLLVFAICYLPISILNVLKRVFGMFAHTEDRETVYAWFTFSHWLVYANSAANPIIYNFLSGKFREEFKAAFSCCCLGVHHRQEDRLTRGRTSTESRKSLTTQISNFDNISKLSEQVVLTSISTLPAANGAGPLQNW

Orexin receptor type 2 [19] = target: T3, Orexin receptor type 2; experiment: Counterscreen assay for antagonists of the orexin 1 receptor (OX1R; HCRTR1): Homogeneous Time Resolved Fluorescence (HTRF)-based cell-based dose response assay for antagonists of the orexin 2 receptor (OX2R; HCRTR2), run by assay provider.; type: functional
BJ [20] = experiment: BJ-TERT fibroblast viability loss – cell-based, RAS-independent, luminescence, dose response (AID 1933); type: functional; details: Homo sapiens
BJ [21] = experiment: BJ-TERT-LT-ST fibroblast viability loss – cell-based, RAS-independent, luminescence, dose response (AID 1935); type: functional; details: Homo sapiens;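 note: BJ fibroblasts immortalized with TERT plus LT and ST oncogenes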
[22] = target: Intestinal-type alkaline phosphatase (Mus musculus, UniProt P24822); experiment: PubChem AID 488785; type: functional
Nonstructural protein 1 = Nonstructural protein 1 (Influenza A virus, UniProt Q194T2); type: functional, Influenza A virus (A/California/07/2009(H1N1))
[23] = target: T4, Alkaline phosphatase, tissue-nonspecific isozyme (Homo sapiens, UniProt P05186); experiment: TNAP enzyme inhibition by screening hits, dose response, selectivity assay for mouse IAP inhibitor project, biochemical, human TNAP, uHTS hits (AID 488906); type: functional
T4 sequence (P05186 whole entry): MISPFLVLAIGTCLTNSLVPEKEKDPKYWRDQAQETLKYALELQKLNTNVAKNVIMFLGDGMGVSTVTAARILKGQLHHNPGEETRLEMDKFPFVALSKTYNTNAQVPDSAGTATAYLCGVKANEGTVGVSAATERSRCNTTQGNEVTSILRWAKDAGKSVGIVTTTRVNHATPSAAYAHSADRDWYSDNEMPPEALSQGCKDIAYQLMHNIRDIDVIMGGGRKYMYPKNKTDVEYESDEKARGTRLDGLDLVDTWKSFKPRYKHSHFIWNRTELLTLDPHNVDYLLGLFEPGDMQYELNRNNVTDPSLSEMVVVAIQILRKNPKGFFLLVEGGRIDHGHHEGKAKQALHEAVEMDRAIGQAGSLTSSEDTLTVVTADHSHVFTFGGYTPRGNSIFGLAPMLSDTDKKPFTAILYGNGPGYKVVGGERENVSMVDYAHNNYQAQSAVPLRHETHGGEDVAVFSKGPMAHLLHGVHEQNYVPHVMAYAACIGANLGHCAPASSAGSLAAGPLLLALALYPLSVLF

[24] = target: Intestinal-type alkaline phosphatase (Homo sapiens, UniProt P09923); experiment: inhibition of human intestinal alkaline phosphatase – biochemical, dose response (AID 488876); type: functional
[25] = target: Delta-type opioid receptor (Homo sapiens, UniProt P41143); experiment: Counterscreen for agonists of heterodimerization of the mu 1 (OPRM1) and delta 1 (OPRD1) opioid receptors: Luminescence-based cell-based high throughput dose response assay to identify agonists of OPRD1 homodimerization. [Related pubchem assays (depositor defined):AID504326, AID504355, AID504692, AID504904, AID504905]; type: functional
Mu-type opioid receptor = Mu-type opioid receptor (Homo sapiens, UniProt P35372); experiment: Counterscreen for agonists of heterodimerization of the mu 1 (OPRM1) and delta 1 (OPRD1) opioid receptors: Luminescence-based cell-based high throughput dose response assay to identify agonists of OPRM1 homodimerization.; type: functional;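 note: U2OS cells expressing OPRM1 and beta-arrestin as split beta-galactosidase partners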
[26] = target: 5-hydroxytryptamine receptor 5A (Homo sapiens, UniProt P47898); experiment: Counterscreen for agonists of OPRM1-OPRD1 heterodimerization: luminescence-based cell-based high throughput dose response assay to identify agonists of 5-hydroxytryptamine (serotonin) 5A receptor (HTR5A). [Related pubchem assays (depositor defined):AID504326, AID504355, AID504692, AID504904, AID504905]; type: functional
Chain of 5-hydroxytryptamine receptor 5A (P47898 whole entry): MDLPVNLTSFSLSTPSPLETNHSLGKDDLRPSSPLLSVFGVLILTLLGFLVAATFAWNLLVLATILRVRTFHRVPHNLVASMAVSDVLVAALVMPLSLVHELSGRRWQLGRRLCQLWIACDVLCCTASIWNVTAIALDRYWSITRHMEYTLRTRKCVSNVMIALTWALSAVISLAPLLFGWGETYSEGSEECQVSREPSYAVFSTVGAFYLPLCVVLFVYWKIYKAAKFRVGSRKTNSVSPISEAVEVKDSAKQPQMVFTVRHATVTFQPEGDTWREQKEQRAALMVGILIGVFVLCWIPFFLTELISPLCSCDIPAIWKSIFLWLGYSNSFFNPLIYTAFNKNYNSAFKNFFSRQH

Chain of Type-1 angiotensin II receptor (P30556 whole entry): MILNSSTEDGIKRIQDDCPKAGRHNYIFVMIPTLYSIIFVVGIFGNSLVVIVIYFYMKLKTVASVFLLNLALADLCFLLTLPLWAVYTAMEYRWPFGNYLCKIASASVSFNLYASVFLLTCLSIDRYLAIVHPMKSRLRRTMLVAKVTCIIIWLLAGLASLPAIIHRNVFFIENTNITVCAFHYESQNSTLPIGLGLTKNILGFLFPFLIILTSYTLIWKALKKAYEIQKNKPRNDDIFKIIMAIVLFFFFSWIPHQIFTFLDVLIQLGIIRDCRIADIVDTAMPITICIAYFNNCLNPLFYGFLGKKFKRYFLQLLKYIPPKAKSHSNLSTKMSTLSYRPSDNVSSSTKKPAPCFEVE
Chain of Delta-type opioid receptor (P41143 whole entry): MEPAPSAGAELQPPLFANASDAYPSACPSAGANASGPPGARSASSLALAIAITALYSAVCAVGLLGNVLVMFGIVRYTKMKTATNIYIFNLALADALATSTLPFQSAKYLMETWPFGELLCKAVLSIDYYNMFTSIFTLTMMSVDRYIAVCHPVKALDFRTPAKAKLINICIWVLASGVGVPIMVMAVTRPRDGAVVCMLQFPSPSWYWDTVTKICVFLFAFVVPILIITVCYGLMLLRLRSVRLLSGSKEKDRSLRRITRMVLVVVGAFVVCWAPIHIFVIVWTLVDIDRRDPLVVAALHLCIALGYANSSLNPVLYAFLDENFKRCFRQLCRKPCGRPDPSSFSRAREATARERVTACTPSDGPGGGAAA
Chain of Mu-type opioid receptor (P35372 whole entry): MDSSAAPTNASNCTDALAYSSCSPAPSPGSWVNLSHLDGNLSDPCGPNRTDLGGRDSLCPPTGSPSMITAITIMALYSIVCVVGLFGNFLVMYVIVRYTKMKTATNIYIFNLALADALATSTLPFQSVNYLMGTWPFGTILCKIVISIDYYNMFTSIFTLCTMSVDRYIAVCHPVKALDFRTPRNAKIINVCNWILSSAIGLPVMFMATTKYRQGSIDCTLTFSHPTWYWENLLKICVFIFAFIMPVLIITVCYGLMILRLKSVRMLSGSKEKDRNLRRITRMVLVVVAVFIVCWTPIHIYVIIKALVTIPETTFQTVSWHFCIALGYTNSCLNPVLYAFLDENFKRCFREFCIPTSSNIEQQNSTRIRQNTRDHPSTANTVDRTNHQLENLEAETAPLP
Chain of Paired box protein Pax-8 (Q06710 whole entry): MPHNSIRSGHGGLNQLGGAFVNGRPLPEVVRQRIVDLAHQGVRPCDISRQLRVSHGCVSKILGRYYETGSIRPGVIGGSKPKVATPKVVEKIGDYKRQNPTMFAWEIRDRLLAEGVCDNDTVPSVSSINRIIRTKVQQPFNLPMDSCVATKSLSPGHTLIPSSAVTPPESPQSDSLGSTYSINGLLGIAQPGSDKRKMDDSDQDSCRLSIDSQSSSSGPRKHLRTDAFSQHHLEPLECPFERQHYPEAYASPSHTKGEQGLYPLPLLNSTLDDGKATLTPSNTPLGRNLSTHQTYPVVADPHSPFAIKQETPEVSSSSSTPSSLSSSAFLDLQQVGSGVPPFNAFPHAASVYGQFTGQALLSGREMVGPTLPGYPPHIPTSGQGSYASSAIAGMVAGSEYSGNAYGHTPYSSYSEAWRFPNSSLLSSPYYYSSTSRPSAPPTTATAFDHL
Chain of Intestinal-type alkaline phosphatase (Homo sapiens, UniProt P09923) (P09923 whole entry): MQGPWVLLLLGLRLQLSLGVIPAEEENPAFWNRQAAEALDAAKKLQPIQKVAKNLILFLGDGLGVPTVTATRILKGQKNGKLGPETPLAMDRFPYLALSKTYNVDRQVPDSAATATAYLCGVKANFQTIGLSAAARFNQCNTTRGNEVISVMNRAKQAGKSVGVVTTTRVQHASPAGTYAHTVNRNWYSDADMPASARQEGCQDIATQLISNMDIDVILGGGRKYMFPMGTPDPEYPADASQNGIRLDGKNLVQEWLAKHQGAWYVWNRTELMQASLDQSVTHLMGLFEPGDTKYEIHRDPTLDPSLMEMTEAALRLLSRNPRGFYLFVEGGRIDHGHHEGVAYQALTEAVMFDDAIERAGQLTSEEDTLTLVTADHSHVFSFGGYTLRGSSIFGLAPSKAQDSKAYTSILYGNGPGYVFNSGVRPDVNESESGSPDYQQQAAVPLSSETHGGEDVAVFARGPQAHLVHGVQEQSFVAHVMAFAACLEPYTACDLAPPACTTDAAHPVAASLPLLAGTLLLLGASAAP
Chain of Intestinal-type alkaline phosphatase (Mus musculus, UniProt P24822) (P24822 whole entry): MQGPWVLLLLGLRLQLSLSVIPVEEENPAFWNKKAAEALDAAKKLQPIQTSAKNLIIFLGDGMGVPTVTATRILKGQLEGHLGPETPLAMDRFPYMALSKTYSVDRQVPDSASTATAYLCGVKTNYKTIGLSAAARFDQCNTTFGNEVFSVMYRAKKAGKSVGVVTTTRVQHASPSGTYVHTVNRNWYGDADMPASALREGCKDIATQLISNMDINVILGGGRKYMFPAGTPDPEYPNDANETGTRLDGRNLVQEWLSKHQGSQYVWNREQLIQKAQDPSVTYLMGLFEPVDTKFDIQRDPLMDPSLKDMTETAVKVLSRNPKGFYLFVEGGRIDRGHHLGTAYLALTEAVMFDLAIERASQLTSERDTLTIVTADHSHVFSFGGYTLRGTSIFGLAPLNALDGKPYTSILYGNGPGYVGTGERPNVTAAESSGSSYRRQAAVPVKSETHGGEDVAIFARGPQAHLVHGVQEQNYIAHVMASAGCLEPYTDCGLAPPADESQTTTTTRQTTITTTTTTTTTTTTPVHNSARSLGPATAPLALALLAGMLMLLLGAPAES
Chain of Nonstructural protein 1 (Q194T2 whole entry): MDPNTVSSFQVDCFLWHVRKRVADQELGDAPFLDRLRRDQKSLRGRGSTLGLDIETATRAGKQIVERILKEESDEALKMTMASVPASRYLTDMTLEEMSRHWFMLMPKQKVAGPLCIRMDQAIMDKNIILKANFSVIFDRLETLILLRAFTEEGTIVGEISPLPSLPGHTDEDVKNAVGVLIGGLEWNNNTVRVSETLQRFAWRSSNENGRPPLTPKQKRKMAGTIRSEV
Chain of Beta-galactosidase (Q8VNN2 whole entry): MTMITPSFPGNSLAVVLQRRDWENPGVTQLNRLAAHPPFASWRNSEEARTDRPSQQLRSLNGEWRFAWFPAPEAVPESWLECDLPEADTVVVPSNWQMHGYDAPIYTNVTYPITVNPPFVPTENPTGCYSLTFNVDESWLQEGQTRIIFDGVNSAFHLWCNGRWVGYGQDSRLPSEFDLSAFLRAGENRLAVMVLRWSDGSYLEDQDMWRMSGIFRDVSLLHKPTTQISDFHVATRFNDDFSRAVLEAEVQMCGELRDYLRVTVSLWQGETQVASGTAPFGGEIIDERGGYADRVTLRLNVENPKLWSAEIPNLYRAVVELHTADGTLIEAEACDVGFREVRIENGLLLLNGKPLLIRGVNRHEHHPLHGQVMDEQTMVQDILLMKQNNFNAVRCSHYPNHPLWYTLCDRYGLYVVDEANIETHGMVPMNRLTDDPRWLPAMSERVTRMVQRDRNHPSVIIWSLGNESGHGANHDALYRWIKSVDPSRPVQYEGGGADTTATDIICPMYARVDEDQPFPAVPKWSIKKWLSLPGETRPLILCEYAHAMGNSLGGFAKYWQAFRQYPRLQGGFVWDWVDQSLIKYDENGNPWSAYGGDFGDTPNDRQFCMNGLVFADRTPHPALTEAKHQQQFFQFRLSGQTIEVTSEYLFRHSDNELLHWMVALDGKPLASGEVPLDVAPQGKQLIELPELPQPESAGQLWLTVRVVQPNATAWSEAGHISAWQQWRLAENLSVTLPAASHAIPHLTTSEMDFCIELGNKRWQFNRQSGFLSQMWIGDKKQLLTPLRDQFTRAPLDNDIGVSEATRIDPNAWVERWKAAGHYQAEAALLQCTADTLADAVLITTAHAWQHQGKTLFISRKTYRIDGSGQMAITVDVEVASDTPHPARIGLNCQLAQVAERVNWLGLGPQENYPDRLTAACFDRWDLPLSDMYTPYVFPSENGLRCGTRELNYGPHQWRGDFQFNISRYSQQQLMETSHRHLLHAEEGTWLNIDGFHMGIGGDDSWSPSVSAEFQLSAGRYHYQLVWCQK

With `CCOc1ccc(C2=Nn3c(nnc3-c3ccccc3OC)SC2)cc1` the EC50 [1] was < 0.1 µM (active), the EC50 [2] was 0.034 µM (active) and the EC50 (cells) was 0.046 µM (active). The EC50 [3] was < 0.1 µM (active), the EC50 [4] was < 0.1 µM (active) and the EC50 (BJ [5]) was < 0.12 µM (active). The EC50 [6] was < 0.12 µM (active), the EC50 [7] was 0.04 µM (active) and the EC50 (BJ [8]) was < 0.104 µM (active). For the same molecule, the AC50 (Paired box protein Pax-8) was 0.317 µM (active) and the AC50 [9] was 63 µM (active).
In the case of `O=C1NC[C@H](c2ccccc2)OC(=O)[C@@H](Cc2ccc(F)cc2)CC/C=C/C[C@@H]1CC(=O)N(CCO)Cc1ccccc1`, the EC50 (Beta-galactosidase) is reported as 19.5 µM (active) and the IC50 [10] is reported as 33.7 µM (not active).
With `Cc1c(C(=O)Oc2cc(N)n(S(C)(=O)=O)n2)cccc1[N+](=O)[O-]` the EC50 [11] was 6.63 µM (active), the EC50 [12] was 5.59 µM (active) and the CC50 (MEF) was > 99 µM (inactive). The EC50 [13] was > 99 µM (inactive) and the EC50 [14] was > 99 µM (inactive).
In the case of `CSc1cccc(NC(=O)C2CCCN(S(=O)(=O)c3cccs3)C2)c1` (stereo unspecified), the IC50 (CHO-K1) is reported as > 66.2 µM (inactive), the IC50 [15] is reported as > 49.7 µM (inactive) and the IC50 [16] is reported as 0.546 µM (active). The IC50 [17] was 6.4 µM (active), the IC50 (Orexin receptor type 2 [18]) was 5.3 µM (active) and the IC50 (Orexin receptor type 2 [19]) was > 50 µM (inactive).
In the case of `CC(=O)c1ccc(NC(=O)N2CCc3ccccc3C2)cc1`, the EC50 (BJ [20]) is reported as > 150 µM (not active), the EC50 (BJ [5]) is reported as 10.5 µM (active) and the EC50 (BJ [21]) is reported as > 150 µM (not active). The EC50 [6] was > 150 µM (not active) and the EC50 (BJ [8]) was 6.04 µM (active).
For `Cc1cc(C)cc(NC(=S)NC2CC3CCCC(C2)N3Cc2cccs2)c1` (stereo unspecified), the IC50 [22] was 2.17 µM (active), the IC50 (Nonstructural protein 1) was > 100 µM (active) and the IC50 [23] was 12.9 µM (active). For the same molecule, the IC50 [24] was 4.06 µM (active).
In the case of `COc1ccc(C2C(C#N)=C(N)N(c3sc4c(c3C#N)CCCC4)C3=C2C(=O)CC(C)(C)C3)cc1` (stereo unspecified), the EC50 [25] is reported as 11.6 µM (inactive), the EC50 (Mu-type opioid receptor) is reported as > 92.5 µM (inactive) and the EC50 [26] is reported as > 92.5 µM (inactive).
